Assays:
Escherichia coli = assay: Growth in liquid culture; type: cell-based; conditions: up to 512 μM (highest tested), data not shown
Text: (§1) These include many bacteria with alarming prevalence for causing antibiotic-resistant infection ([12]). […] This is important because, for the development of antivirulence chemotherapies, the small molecules should not have an inhibitory effect on bacterial growth. Otherwise, they would select for resistance, just like antibiotics. From a chemical structure perspective, levodopa is 3,4-dihydroxyphenylalanine (Fig. 2), or phenylalanine with two hydroxyl groups. […] These preliminary studies of structure and activity relationships are consistent with benserazide and levodopa being specific inhibitors of PilB. As mentioned earlier, work with trifluoperazine ([25]) and P4MP4 ([26], [27]) has provided the proof of principle for antivirulence therapies with anti-T4P compounds. It is also encouraging that a compound targeting the adhesin function of the type 1 pilus of the uropathogenic E. coli (UPEC) ([47]) has moved to the clinical trial phase in the drug development pipeline ([48]).

[1] = test system: A. nosocomialis twitching motility; assay: Twitching motility, crystal violet stained twitching area; type: cell-based, Acinetobacter nosocomialis; conditions: WT M2 strain; for effect on twitching of the WT strain at 128 μM: compared with ΔpilA; for concentration significantly reducing twitching: P < 0.05
Text: The inhibitors may thus interact with conserved features of the PilB ATPase family. A. nosocomialis PilB ([19]), whose N terminus is not similar to the MshEN domain (data not shown), shares ~53% identity and ~74% homology with MxPilB and MC3PilB in the ATPase domain (Fig. S1). We analyzed whether benserazide and levodopa could impact the T4P-powered twitching motility ([19], [44]) of A. nosocomialis (Fig. 7), an opportunistic pathogen in the Acinetobacter calcoaceticus-Acinetobacter baumannii (ACB) complex ([45]). As shown in Fig. 7A and B and Fig. S7, benserazide and levodopa impede the twitching motility of WT A. nosocomialis in a concentration-dependent manner.
FIG 7 Benserazide and levodopa inhibit Acinetobacter nosocomialis twitching motility and biofilm formation. (A and B) Twitching motility is correlated with the twitching area (cm^2) of the A. nosocomialis wild-type (WT) strain in the presence of (A) benserazide or (B) levodopa, with the control (no inhibitor) normalized to 1. Data are from 3 independent experiments, each performed in triplicates and represented by dots of the same color. (C and D) Biofilms formed by A. nosocomialis with (C) benserazide or (D) levodopa were analyzed by a microplate assay with crystal violet (CV) staining. Results from three independent experiments, each performed in quadruplicates and represented by dots of the same color, are shown. Horizontal lines indicate overall averages, and asterisks (*) signify that values at the indicated concentration are statistically different from those of the control (P < 0.05).
The A. nosocomialis wild-type M2 strain and an isogenic pilA deletion (ΔpilA) mutant ([19], [46]) were used in this study. They were grown and maintained using MacConkey medium at 37°C. The twitching motility of the M2 strain of A. nosocomialis was analyzed with 1% crystal violet (CV) for staining, and twitching areas were used as measures of motility as previously described ([46]). These motility assays were conducted in triplicates and the stained area of the ΔpilA mutant was subtracted from that of the WT for data analysis. A. nosocomialis biofilm formation was analyzed using microplates and CV staining as previously described ([53], [54]). The biofilm assays were conducted in quadruplicate in MacConkey medium with tissue culture-treated microtiter plates (Falcon). CV absorbance (Acv) was measured at 590 nm using Infinite M200 PRO in clear polystyrene 96-well microplates (ExtraGene). Absorbance for each well was read 16 times using Multiple Reads with the average as the final Acv value. Readings from control wells without bacteria were subtracted for normalization. Statistical differences were determined using a Student’s t test.

[2] = test system: M. xanthus adventurous (A) motility; assay: Expansion of ΔpilB strain DK10416 (A motility only) on hard agar; type: cell-based, Myxococcus xanthus; conditions: up to 128 μM
Text: On the other hand, YZ1674 and YZ2232, which have both A and S motility, were affected in their expansion on hard agar by both compounds (Fig. S4 and S5) at concentrations similar to those on soft agar. Indeed, the results with hard agar plates mirror those with soft agar. […] Because neither benserazide nor levodopa had any effect on A motility (Fig. S3C and D), the net differences on hard agar at different concentrations of the inhibitor (Fig. S4) can be viewed as confirmation of its effect on S motility (Fig. 5). […] It is plausible that this inhibition is attributable to their effects on the PilB ATPase in vivo.
M. xanthus was grown and maintained at 32°C in Casitone-yeast extract (CYE) medium ([49]). Motility assays were conducted with strains DK10416 (ΔpilB) ([40]), YZ1674 (ΔpilB att::MxpilB) ([50]), and YZ2232 (ΔpilB att::MC3pilB) ([30], [51]) as previously described ([28]). One modification was that 10% India ink was included in the cell suspension to mark the initial spot on agar plates. All experiments were conducted in quintuplicates and the diameter of the initial spot, as marked by India ink, was subtracted for data analysis.

A. nosocomialis = assay: Growth in liquid culture; type: cell-based, Acinetobacter nosocomialis; conditions: up to 512 μM (highest tested), data not shown
Text: as §1

Row | SMILES | effect on growth in liquid culture (Escherichia coli) | effect on twitching of the WT strain at 128 μM [1] | concentration significantly reducing twitching [1] [µM] | effect on expansion of DK10416 (A motility) [2] | effect on growth in liquid culture (A. nosocomialis)
1 | NC(CO)C(=O)NNCc1ccc(O)c(O)c1O (stereo not shown) [benserazide] | neither benserazide nor levodopa had any discernible effect on the growth | eliminated twitching | ≥ 32 | neither benserazide nor levodopa influenced the expansion of DK10416 | neither benserazide nor levodopa had any discernible effect on the growth
2 | N[C@@H](Cc1ccc(O)c(O)c1)C(=O)O [levodopa, 3,4-dihydroxyphenylalanine] | neither benserazide nor levodopa had any discernible effect on the growth | eliminated twitching | ≥ 32 | neither benserazide nor levodopa influenced the expansion of DK10416 | neither benserazide nor levodopa had any discernible effect on the growth

Reference: paper PMC9769694, “Discovery of Two Inhibitors of the Type IV Pilus Assembly ATPase PilB as Potential Antivirulence Compounds” (Microbiology Spectrum, 2022)
